Where two headings read alike, the source gives them in different places.
Assays:
Calmodulin (CaM) [1] = target: T1, Calmodulin (CaM) (Homo sapiens, UniProt P0DP23); assay: BSI free-solution CaM-Ca^2+ interaction; assay type: binding; details: for Kd: 5 μM CaM, pH 7.5, 25° C.
T1 construct: purchased Sigma, St. Louis, Mo
Description: Homogeneous, label-free CaM-Ca^2+ interactions are quantified with BSI by real-time monitoring the sequential reactions of a constant concentration of 5 μM CaM with Ca^2+ solutions increasing in concentrations from 12.5-100 μM (FIG. 24A). Here CaM was buffered at pH=7.5 with 0.1M HEPES and 0.1M KCl, with its concentration held constant at 5 μM. In this aspect, the CaM solution contained a small amount of EGTA to chelate any free Ca^2+. The reactions were carried out in the same microfluidic chip molded in PDMS with the temperature fixed at 25° C. A 5 μM CaM solution and a 100 μM Ca^2+ solution both consisting of excess EGTA (i.e., 400 μM), served as the control.
Kinetic analysis using a single exponential gives rise to a plot of observed rates versus Ca^2+ concentration that is linear. A least squares analysis of the linear plot yields the slope, intercept, and their respective errors. […] Without wishing to be bound by theory, it is believed that the disparity in these two values was due likely to a less than optimal approach to fitting the kinetic data and the RI background present from unreacted ligand, particularly at high concentrations.
These experiments were conducted at 25±0.01° C. maintained by a thermoelectric temperature controller (MELCOR, Trenton, N.J.) coupled to a Peltier device. Binding experiments were monitored in real-time at frequencies ca. 50-100 Hz.
CaM was buffered at a pH=7.5 with 0.1M HEPES and 0.1M KCl with its concentration held constant throughout the experiment at 5 μM. The CaM solution contained a small amount of EGTA to chelate any free Ca^2+. BSI monitored, in real-time, the sequential reactions of 5 μM CaM with concentrations of Ca^2+ ranging from 12.5-100 μM.

Calmodulin (CaM) [2] = target: T1, Calmodulin (CaM); details: literature; read-out: published Kd values, calmodulin-calcium ion interaction; cited from earlier work

control: change in signal above that observed in the absence of excess EGTA at equivalent concentrations (Calmodulin (CaM) [1]; 5 μM CaM and 100 μM Ca^2+, both with excess EGTA (400 μM)): < 3%
Kd (Calmodulin (CaM) [1]; 12.5-100 μM Ca^2+, read-out: Kd CaM-Ca^2+, kinetic analysis (observed rates versus Ca^2+ concentration)): 3.36 µM
Kd (Calmodulin (CaM) [1]; read-out: Kd CaM-Ca^2+, steady-state values analysed by Prism): 17.8 µM
Structure (SMILES): [Ca+2] [Ca^2+]
Kd (Calmodulin (CaM) [2]): 1 to 10 µM

— US8445217B2, “Free solution measurement of molecular interactions by backscattering interferometry” (Vanderbilt University, priority 2007, dated 2013)
